Columns and labels:
growth hormone secretion [1] = experiment: Growth hormone secretion regulating function, intravenous administration of amino acid solutions; assay type: in vivo, shiba-goat (capra hircus); conditions: aspartic acid 0.75 mmol/kg, valine 1.0 mmol/kg, blood 6 h before to 12 h after administration, n=3
Description: The growth hormone secretion regulating function of amino acids to be used in the present invention was evaluated by investigating changes in growth hormone secretion caused by intravenous administration of amino acid solutions. The details are as follows.
Special grade aspartic acid (Ajinomoto Co., Inc.) and valine (Ajinomoto Co., Inc.) were used as L-type amino acid samples. The amino acids were dissolved in purified water or an aqueous solution of 5% carboxymethylcellulose and administered as aqueous solutions (pH 7.0 to 8.0).
Two- to four-year-old mature castrated male and female shiba-goats (25 to 35 kg), purchased from the farm of Tokyo University, were domesticated for about one week. Aspartic acid (0.75 mmol/kg), valine (1.0 mmol/kg), and a mixture thereof, prepared in the same way as above, were administered intravenously via a cannula placed in the jugular vein, and blood was collected continuously during a period between 6 hours before and 12 hours after administration every 15 minutes via the cannula placed in the jugular vein, followed by investigation of changes in growth hormone secretion (n=3). The concentrations of the growth hormone in blood were measured by radioimmunoassay based on a double antibody method.
The growth hormone and antibody used in the radioimmunoassay were purchased from National institute of Diabetes and Digestive and Kidney Diseases. The other procedures were performed based on a reference (Hashizume T et al., Animal Science Technology 62: 343-350). The minimum measured concentration was 1 ng/ml, while the maximum measured concentration was 512 ng/ml. The intra-assay variation and inter-assay variation were 11.6% and 12.3%, respectively.

growth hormone secretion [2] = experiment: Growth hormone secretion regulating function, oral administration of amino acid solutions; assay type: in vivo, shiba-goat (capra hircus); conditions: sodium aspartate monohydrate 5 mmol/kg, valine 5 mmol/kg, blood 6 h before to 12 h after administration, n=3
Description: Two- to four-year-old mature castrated male and female shiba-goats (25 to 35 kg), purchased from the farm of Tokyo University, were domesticated for about one week. Sodium aspartate monohydrate (5 mmol/kg, 861 mg/kg), valine (5 mmol/kg, 586 mg/kg), and a mixture thereof, prepared in the same way as Example 1, were administered orally to the shiba-goats, and blood was collected continuously during a period between 6 hours before and 12 hours after administration every 15 minutes via a cannula placed in the jugular vein, followed by investigation of changes in growth hormone secretion (n=3). The concentrations of the growth hormone in blood were measured by immunoassay in which europium was used.
The growth hormone and antibody used in the immunoassay were purchased from National institute of Diabetes and Digestive and Kidney Diseases. The other procedures were performed based on a reference (Sugino T et al., Biochemical and biophysical research communications 295: 255-60). The minimum measured concentration was 2 ng/ml, while the maximum measured concentration was 126 ng/ml. The intra-assay variation and inter-assay variation were 11.3% and 8.6%, respectively.

N[C@@H](CC(=O)O)C(=O)O [aspartic acid]
no changes: amount of the growth hormone secreted in a pulse-like manner (growth hormone secretion [1]) | secretion patterns of the growth hormone secreted in a pulse-like manner at a certain frequency (growth hormone secretion [1]) | amount of the growth hormone secreted in a pulse-like manner (growth hormone secretion [2]) | secretion patterns of the growth hormone secreted in a pulse-like manner at a certain frequency (growth hormone secretion [2])

CC(C)[C@H](N)C(=O)O [valine]
no changes: amount of the growth hormone secreted in a pulse-like manner (growth hormone secretion [1]) | secretion patterns of the growth hormone secreted in a pulse-like manner at a certain frequency (growth hormone secretion [1]) | amount of the growth hormone secreted in a pulse-like manner (growth hormone secretion [2]) | secretion patterns of the growth hormone secreted in a pulse-like manner at a certain frequency (growth hormone secretion [2])

Reference: patent US20090048340A1, “GROWTH HORMONE SECRETION REGULATOR” (AJINOMOTO CO., INC., priority 2006, published 2009)
